# How the values were obtained:
# [1] = molecular target: Hepatocyte growth factor receptor (Homo sapiens) (UniProt P08581); conditions: Compound concentration 1000.0 nM
# [2] = molecular target: Mitogen-activated protein kinase kinase kinase 9 (Homo sapiens) (UniProt P80192); conditions: Compound concentration 1000.0 nM
# [3] = molecular target: Activin receptor type-1-like (Homo sapiens) (UniProt P37023); conditions: Compound concentration 1000.0 nM
# [4] = tested on: ALK tyrosine kinase receptor (Homo sapiens), Q9UM73 [C1156Y]; conditions: Compound concentration 1000.0 nM
# [5] = molecular target: Muscle, skeletal receptor tyrosine-protein kinase (Homo sapiens) (UniProt O15146); conditions: Compound concentration 1000.0 nM
# [6] = molecular target: Mitogen-activated protein kinase 11 (Homo sapiens) (UniProt Q15759); conditions: Compound concentration 1000.0 nM
# [7] = molecular target: Megakaryocyte-associated tyrosine-protein kinase (Homo sapiens) (UniProt P42679); conditions: Compound concentration 1000.0 nM
# [8] = molecular target: Serine/threonine-protein kinase D2 (Homo sapiens) (UniProt Q9BZL6); conditions: Compound concentration 1000.0 nM
# [9] = molecular target: Mitogen-activated protein kinase kinase kinase 10 (Homo sapiens) (UniProt Q02779); conditions: Compound concentration 1000.0 nM
# [10] = molecular target: Serine/threonine-protein kinase TBK1 (Homo sapiens) (UniProt Q9UHD2); conditions: Compound concentration 1000.0 nM
# [11] = tested on: Epidermal growth factor receptor (Homo sapiens), P00533 [T790M]; conditions: Compound concentration 1000.0 nM
# [12] = molecular target: Sigma non-opioid intracellular receptor 1 (Homo sapiens) (UniProt Q99720); conditions: Compound concentration 10.0 uM
# [13] = molecular target: Serine/threonine-protein kinase ULK1 (Homo sapiens) (UniProt O75385); conditions: Compound concentration 1000.0 nM
# [14] = molecular target: Mitogen-activated protein kinase 12 (Homo sapiens) (UniProt P53778); conditions: Compound concentration 1000.0 nM
# [15] = molecular target: Serine/threonine-protein kinase WNK4 (Homo sapiens) (UniProt Q96J92); conditions: Compound concentration 1000.0 nM
# [16] = molecular target: Tyrosine-protein kinase Blk (Homo sapiens) (UniProt P51451); conditions: Compound concentration 1000.0 nM
# [17] = molecular target: Mitogen-activated protein kinase kinase kinase 2 (Homo sapiens) (UniProt Q9Y2U5); conditions: Compound concentration 1000.0 nM
# [18] = molecular target: Bone morphogenetic protein receptor type-1B (Homo sapiens) (UniProt O00238); conditions: Compound concentration 1000.0 nM
# [19] = tested on: Tyrosine-protein kinase ABL1 (Homo sapiens), P00519 [F317L]; conditions: Compound concentration 1000.0 nM
# [20] = molecular target: Receptor-interacting serine/threonine-protein kinase 2 (Homo sapiens) (UniProt O43353); conditions: Compound concentration 1000.0 nM
# [21] = molecular target: Phosphatidylinositol 4,5-bisphosphate 3-kinase catalytic subunit delta isoform (Homo sapiens) (UniProt O00329); conditions: Compound concentration 1000.0 nM
# [22] = molecular target: Protein kinase C delta type (Homo sapiens) (UniProt Q05655); conditions: Compound concentration 1000.0 nM
# [23] = molecular target: Alpha-2B adrenergic receptor (Homo sapiens) (UniProt P18089); conditions: Compound concentration 10.0 uM
# [24] = molecular target: Calcium/calmodulin-dependent protein kinase type II subunit beta (Homo sapiens) (UniProt Q13554); conditions: Compound concentration 1000.0 nM
# [25] = molecular target: Phosphatidylinositol 4-kinase beta (Homo sapiens) (UniProt Q9UBF8); conditions: Compound concentration 1000.0 nM
# [26] = molecular target: D(3) dopamine receptor (Homo sapiens) (UniProt P35462); conditions: Compound concentration 10.0 uM
# [27] = tested on: Mast/stem cell growth factor receptor Kit (Homo sapiens), P10721 [D816H]; conditions: Compound concentration 1000.0 nM
# [28] = molecular target: Receptor tyrosine-protein kinase erbB-3 (Homo sapiens) (UniProt P21860); conditions: Compound concentration 1000.0 nM
# [29] = molecular target: Interferon-induced, double-stranded RNA-activated protein kinase (Homo sapiens) (UniProt P19525); conditions: Compound concentration 1000.0 nM
# [30] = molecular target: Beta-adrenergic receptor kinase 1 (Homo sapiens) (UniProt P25098); conditions: Compound concentration 1000.0 nM
# [31] = molecular target: LIM domain kinase 2 (Homo sapiens) (UniProt P53671); conditions: Compound concentration 1000.0 nM
# [32] = molecular target: Ephrin type-A receptor 2 (Homo sapiens) (UniProt P29317); conditions: Compound concentration 1000.0 nM
# [33] = molecular target: Homeodomain-interacting protein kinase 1 (Homo sapiens) (UniProt Q86Z02); conditions: Compound concentration 1000.0 nM
# [34] = molecular target: Calcium/calmodulin-dependent protein kinase type IV (Homo sapiens) (UniProt Q16566); conditions: Compound concentration 1000.0 nM
# [35] = molecular target: Myosin-IIIa (Homo sapiens) (UniProt Q8NEV4); conditions: Compound concentration 1000.0 nM
# [36] = tested on: Receptor-type tyrosine-protein kinase FLT3 (Homo sapiens), P36888 [K663Q]; conditions: Compound concentration 1000.0 nM
# [37] = molecular target: Ephrin type-B receptor 1 (Homo sapiens) (UniProt P54762); conditions: Compound concentration 1000.0 nM
# [38] = molecular target: Cytoplasmic tyrosine-protein kinase BMX (Homo sapiens) (UniProt P51813); conditions: Compound concentration 1000.0 nM
# [39] = molecular target: Maternal embryonic leucine zipper kinase (Homo sapiens) (UniProt Q14680); conditions: Compound concentration 1000.0 nM
# [40] = tested on: Epidermal growth factor receptor (Homo sapiens), P00533 [UNDEFINED MUTATION]; conditions: Compound concentration 1000.0 nM
# [41] = molecular target: Activin receptor type-2B (Homo sapiens) (UniProt Q13705); conditions: Compound concentration 1000.0 nM
# [42] = molecular target: Cyclin-dependent kinase 13 (Homo sapiens) (UniProt Q14004); conditions: Compound concentration 1000.0 nM
# [43] = molecular target: Serine/threonine-protein kinase 32B (Homo sapiens) (UniProt Q9NY57); conditions: Compound concentration 1000.0 nM
# [44] = molecular target: 1-phosphatidylinositol 3-phosphate 5-kinase (Homo sapiens) (UniProt Q9Y2I7); conditions: Compound concentration 1000.0 nM
# [45] = molecular target: STE20/SPS1-related proline-alanine-rich protein kinase (Homo sapiens) (UniProt Q9UEW8); conditions: Compound concentration 1000.0 nM
# Activin receptor type-2B (Homo sapiens), sequence (Q13705 whole entry): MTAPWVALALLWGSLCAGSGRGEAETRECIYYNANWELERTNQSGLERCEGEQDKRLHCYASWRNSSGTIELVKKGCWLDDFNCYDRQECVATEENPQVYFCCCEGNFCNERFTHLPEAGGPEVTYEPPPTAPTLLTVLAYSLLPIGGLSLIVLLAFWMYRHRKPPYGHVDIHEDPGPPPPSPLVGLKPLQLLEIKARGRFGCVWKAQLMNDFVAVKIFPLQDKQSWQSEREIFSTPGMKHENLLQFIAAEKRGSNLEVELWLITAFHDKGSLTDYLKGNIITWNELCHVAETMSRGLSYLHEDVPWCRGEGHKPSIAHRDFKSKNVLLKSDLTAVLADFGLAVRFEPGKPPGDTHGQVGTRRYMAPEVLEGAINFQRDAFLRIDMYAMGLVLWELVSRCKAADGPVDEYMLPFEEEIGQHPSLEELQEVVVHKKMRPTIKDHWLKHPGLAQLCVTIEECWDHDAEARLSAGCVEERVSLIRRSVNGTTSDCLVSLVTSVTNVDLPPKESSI
# Myosin-IIIa (Homo sapiens), sequence (Q8NEV4 whole entry): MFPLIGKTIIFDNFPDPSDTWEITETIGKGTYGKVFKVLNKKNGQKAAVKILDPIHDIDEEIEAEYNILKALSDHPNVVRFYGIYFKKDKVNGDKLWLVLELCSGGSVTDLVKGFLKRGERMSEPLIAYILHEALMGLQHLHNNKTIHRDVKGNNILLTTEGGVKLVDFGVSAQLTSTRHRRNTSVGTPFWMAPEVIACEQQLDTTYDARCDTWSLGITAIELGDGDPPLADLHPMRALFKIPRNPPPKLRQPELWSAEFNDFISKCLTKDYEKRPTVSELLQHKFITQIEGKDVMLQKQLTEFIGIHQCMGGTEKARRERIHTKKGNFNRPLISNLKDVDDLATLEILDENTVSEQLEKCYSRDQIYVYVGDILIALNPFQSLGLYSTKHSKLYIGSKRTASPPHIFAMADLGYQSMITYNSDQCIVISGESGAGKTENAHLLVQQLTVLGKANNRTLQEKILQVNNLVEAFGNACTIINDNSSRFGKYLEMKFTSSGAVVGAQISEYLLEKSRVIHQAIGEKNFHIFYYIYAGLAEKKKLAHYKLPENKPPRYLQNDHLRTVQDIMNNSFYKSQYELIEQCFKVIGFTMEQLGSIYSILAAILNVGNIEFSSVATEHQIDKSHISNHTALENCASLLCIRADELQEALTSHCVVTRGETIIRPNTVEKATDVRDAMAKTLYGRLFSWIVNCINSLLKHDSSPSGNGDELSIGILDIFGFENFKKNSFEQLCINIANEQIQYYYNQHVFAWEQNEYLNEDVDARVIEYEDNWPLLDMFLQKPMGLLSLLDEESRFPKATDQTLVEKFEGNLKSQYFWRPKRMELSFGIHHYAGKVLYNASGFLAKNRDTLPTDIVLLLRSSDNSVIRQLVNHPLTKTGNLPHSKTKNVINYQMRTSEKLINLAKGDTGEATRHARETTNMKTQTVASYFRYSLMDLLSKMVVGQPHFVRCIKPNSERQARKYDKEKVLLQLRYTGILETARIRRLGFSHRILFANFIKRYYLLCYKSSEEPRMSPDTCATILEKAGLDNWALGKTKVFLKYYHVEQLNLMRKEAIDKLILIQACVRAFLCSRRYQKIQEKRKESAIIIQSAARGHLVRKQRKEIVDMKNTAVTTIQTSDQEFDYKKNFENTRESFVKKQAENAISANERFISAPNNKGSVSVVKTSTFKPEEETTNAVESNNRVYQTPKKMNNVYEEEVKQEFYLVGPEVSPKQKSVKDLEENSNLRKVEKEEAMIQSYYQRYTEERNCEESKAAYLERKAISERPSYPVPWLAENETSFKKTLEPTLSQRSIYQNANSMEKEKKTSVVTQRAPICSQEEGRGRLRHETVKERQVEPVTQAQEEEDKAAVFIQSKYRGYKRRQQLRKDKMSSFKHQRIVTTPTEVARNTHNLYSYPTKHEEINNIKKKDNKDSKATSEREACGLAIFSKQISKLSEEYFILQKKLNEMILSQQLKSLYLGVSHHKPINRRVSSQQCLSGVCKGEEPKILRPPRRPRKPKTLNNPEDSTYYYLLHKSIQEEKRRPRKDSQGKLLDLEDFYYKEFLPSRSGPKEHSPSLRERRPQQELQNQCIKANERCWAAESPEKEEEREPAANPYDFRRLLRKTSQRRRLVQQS
# Maternal embryonic leucine zipper kinase (Homo sapiens), sequence (Q14680 whole entry, looked up): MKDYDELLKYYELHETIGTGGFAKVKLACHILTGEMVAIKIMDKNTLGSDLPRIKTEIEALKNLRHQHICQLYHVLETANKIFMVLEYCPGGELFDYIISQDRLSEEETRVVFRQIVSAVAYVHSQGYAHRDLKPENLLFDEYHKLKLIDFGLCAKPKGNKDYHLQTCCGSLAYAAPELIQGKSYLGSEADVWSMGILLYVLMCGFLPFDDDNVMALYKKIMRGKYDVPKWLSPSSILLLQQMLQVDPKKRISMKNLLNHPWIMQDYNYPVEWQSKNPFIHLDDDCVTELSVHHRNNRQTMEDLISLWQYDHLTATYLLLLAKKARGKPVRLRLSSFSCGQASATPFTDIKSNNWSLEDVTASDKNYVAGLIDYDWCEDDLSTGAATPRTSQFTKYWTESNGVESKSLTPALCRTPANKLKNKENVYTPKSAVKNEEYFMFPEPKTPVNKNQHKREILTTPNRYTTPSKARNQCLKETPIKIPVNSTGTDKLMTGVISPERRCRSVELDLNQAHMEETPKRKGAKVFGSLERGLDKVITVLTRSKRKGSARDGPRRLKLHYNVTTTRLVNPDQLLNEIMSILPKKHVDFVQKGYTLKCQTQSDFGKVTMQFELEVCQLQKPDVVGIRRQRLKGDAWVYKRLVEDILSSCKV
# Serine/threonine-protein kinase TBK1 (Homo sapiens), sequence (Q9UHD2 whole entry): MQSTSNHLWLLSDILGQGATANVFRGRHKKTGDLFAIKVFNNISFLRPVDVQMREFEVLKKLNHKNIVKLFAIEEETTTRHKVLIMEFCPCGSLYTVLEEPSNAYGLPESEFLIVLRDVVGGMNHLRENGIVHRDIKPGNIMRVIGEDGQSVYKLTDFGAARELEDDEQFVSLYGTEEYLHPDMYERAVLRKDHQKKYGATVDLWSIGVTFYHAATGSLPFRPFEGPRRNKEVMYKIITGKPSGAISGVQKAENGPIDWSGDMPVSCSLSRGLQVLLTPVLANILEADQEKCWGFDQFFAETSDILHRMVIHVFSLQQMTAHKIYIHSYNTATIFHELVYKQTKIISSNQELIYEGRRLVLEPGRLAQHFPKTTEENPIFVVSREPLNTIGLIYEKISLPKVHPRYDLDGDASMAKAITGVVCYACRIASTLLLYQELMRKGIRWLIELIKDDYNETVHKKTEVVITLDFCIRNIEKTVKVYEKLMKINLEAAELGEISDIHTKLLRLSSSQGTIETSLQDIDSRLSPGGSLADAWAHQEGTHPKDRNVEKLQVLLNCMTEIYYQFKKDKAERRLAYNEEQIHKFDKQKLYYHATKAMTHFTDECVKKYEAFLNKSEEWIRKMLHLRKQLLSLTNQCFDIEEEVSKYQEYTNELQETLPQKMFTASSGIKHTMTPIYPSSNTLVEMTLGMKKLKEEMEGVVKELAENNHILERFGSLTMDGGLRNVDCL
# Activin receptor type-1-like (Homo sapiens), sequence (P37023 whole entry): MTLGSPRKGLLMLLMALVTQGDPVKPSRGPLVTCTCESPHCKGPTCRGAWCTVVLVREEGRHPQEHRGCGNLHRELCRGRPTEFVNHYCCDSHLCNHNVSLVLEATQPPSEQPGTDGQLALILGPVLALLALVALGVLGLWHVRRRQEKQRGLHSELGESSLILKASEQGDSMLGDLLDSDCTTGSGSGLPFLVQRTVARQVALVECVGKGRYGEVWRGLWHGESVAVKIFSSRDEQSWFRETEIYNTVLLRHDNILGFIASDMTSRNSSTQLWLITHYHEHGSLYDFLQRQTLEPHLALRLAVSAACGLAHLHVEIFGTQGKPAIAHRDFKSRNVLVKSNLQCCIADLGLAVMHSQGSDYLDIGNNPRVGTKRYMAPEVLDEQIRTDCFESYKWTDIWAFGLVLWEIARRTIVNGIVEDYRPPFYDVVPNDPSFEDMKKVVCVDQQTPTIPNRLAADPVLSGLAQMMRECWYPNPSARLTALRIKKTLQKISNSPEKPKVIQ
# Serine/threonine-protein kinase ULK1 (Homo sapiens), sequence (O75385 whole entry): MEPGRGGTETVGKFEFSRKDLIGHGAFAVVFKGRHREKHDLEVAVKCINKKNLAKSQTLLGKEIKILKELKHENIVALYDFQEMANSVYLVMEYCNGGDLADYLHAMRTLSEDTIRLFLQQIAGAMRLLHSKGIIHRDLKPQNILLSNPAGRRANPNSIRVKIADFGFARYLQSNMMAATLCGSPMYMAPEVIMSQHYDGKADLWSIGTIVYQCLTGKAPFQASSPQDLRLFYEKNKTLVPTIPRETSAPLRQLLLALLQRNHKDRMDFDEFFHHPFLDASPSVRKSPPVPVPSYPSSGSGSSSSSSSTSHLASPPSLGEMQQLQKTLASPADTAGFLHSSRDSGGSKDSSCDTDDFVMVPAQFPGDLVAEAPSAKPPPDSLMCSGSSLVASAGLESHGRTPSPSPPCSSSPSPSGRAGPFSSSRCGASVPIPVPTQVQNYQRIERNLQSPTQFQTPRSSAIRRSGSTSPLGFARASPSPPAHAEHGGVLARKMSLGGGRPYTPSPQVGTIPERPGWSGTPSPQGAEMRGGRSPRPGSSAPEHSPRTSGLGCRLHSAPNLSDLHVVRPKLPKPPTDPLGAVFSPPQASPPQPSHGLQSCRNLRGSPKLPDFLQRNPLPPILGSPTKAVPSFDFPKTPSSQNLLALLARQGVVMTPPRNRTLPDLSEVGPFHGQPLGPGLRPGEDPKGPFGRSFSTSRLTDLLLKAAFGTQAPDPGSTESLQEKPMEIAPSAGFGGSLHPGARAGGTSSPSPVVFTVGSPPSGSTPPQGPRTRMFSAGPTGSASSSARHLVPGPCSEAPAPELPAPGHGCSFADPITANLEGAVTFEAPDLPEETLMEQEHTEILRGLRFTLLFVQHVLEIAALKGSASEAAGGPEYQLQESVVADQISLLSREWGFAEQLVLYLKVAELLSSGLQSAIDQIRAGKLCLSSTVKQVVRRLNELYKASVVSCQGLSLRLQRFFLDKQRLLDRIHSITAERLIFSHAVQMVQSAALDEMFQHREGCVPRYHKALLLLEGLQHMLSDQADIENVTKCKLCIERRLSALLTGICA
structure (smiles),measurement,setting,value
NS(=O)(=O)c1cc(NC(=O)C2(c3ccccc3Cl)CC2)ccc1Oc1cccc(Cl)c1 [BAY-207],residual activity,[1],81%
same,residual activity,[2],67%
same,residual activity,[3],45%
same,residual activity,[4],100%
same,residual activity,[5],77%
same,residual activity,[6],68%
same,residual activity,[7],100%
same,residual activity,[8],87%
same,residual activity,[9],100%
same,residual activity,[10],62%
same,residual activity,[11],100%
same,inhibition,[12],18.6%
same,residual activity,[13],89%
same,residual activity,[14],54%
same,residual activity,[15],81%
same,residual activity,[16],100%
same,residual activity,[17],100%
same,residual activity,[18],81%
same,residual activity,[19],71%
same,residual activity,[20],93%
same,residual activity,[21],99%
same,residual activity,[22],89%
same,inhibition,[23],43.4%
same,residual activity,[24],100%
same,residual activity,[25],75%
same,inhibition,[26],10.5%
same,residual activity,[27],86%
same,residual activity,[28],84%
same,residual activity,[29],100%
same,residual activity,[30],100%
same,residual activity,[31],82%
same,residual activity,[32],80%
same,residual activity,[33],91%
same,residual activity,[34],43%
same,residual activity,[35],93%
same,residual activity,[36],100%
same,residual activity,[37],78%
same,residual activity,[38],87%
same,residual activity,[39],96%
same,residual activity,[40],96%
same,residual activity,[41],90%
same,residual activity,[42],100%
same,residual activity,[43],91%
same,residual activity,[44],100%
same,residual activity,[45],100%
NS(=O)(=O)c1cc(NC(=O)Cc2ccccc2)ccc1Oc1cccc(Cl)c1 [BAY-1797],residual activity,[1],91%
same,residual activity,[2],100%
same,residual activity,[3],99%
same,residual activity,[4],88%
same,residual activity,[5],100%
same,residual activity,[6],100%
same,residual activity,[7],68%
same,residual activity,[8],85%
same,residual activity,[9],98%
same,residual activity,[10],68%
same,residual activity,[11],100%
same,inhibition,[12],-8.2%
same,residual activity,[13],88%
same,residual activity,[14],100%
same,residual activity,[15],0%
same,residual activity,[16],68%
same,residual activity,[17],84%
same,residual activity,[18],94%
same,residual activity,[19],72%
same,residual activity,[20],94%
same,residual activity,[21],93%
same,residual activity,[22],100%
same,inhibition,[23],56.6%
same,residual activity,[24],100%
same,residual activity,[25],55%
same,inhibition,[26],0.87%
same,residual activity,[27],76%
same,residual activity,[28],100%
same,residual activity,[29],80%
same,residual activity,[30],97%
same,residual activity,[31],88%
same,residual activity,[32],91%
same,residual activity,[33],80%
same,residual activity,[34],100%
same,residual activity,[35],100%
same,residual activity,[36],99%
same,residual activity,[37],93%
same,residual activity,[38],94%
same,residual activity,[39],59%
same,residual activity,[40],86%
same,residual activity,[41],75%
same,residual activity,[42],92%
same,residual activity,[43],100%
same,residual activity,[44],95%
same,residual activity,[45],86%

# — ChEMBL document CHEMBL4507265 (2021)
